Test results taken from patent publication US20130065818A1, “Arylamide Compounds And Compositions And Uses Thereof” (POLYMEDIX, priority 2006, published 2013).
Values after ≈ are worked out from the molar mass of the structure shown. Values joined by “and” are separate entries in the source; they are usually repeats but may differ in a detail not shown here. Equal entries are not always repeated. Where two headings read alike, the source gives them in different places.

Key:
[1] = system: Staphylococcus aureus fluoroquinolone-susceptible; test: MIC, 25 ocular isolates, broth microdilution (Example 8); assay type: cell-based
Procedure: • Mueller-Hinton Broth in tubes was inoculated with 25 ocular isolates of Staphylococcus aureus fluoroquinolone-susceptible, Staphylococcus aureus fluoroquinolone-resistant, Staphylococcus epidermidis (Coagulase-negative Staphylococcus) fluoroquinolone-susceptible, Staphylococcus epidermidis (Coagulase-negative Staphylococcus) fluoroquinolone-resistant, Pseudomonas aeruginosa and Serratia marcescens, plus two controls (Staphylococcus aureus and E. coli) and incubated at 37° C. overnight on a shaker set at 250 rpm.
(§1) On the day of testing, a 640 μg/ml (1280 μg/ml for Serratia marcescens and Pseudomonas aeruginosa) concentration was prepared from a 1% stock solution in 0.01% acetic acid, 0.2% BSA in polypropylene tubes.
(§2) Serial doubling dilutions in 0.01% acetic acid, 0.2% BSA in 96 well polypropylene plates, which are used as reservoirs for the inoculation of the test plates, were carried out to obtain serial dilutions of test agents at 10 times the required test concentrations: 640, 320, 160, 80, 40, 20, 10, 5, 2.5, 1.25, and 0.625 μg/ml (1280, 640, 320, 160, 80, 40, 20, 10, 5, 2.5, and 1.25 μg/ml for Serratia marcescens and Pseudomonas aeruginosa).
(§3) Ten μl of diluted 10×test agents was added to each well of one row of the 96 well polypropylene plates from column 2 to column 12 (column 1 is a control for bacteria alone, with no peptide). Test agent concentrations in columns 2-12 were as follows: 64, 32, 16, 8, 4, 2, 1, 0.5, 0.25, 0.125, and 0.0625 μg/ml (128, 64, 32, 16, 8, 4, 2, 1, 0.5, 0.25, and 0.125 μg/ml for Serratia marcescens and Pseudomonas aeruginosa). The same peptide was in each of the 8 rows. One plate contained dilutions of one test agent and 8 bacterial isolates.
On the day of testing, the overnight bacterial broth cultures of Staphylococcus aureus fluoroquinolone-susceptible, Staphylococcus aureus fluoroquinolone-resistant, Staphylococcus epidermidis (Coagulase-negative Staphylococcus) fluoroquinolone-susceptible, Staphylococcus epidermidis (Coagulase-negative Staphylococcus) fluoroquinolone-resistant, Serratia marcescens, and Pseudomonas aeruginosa, plus two controls (Staphylococcus aureus and E. coli) were diluted in 5 ml of trypticase soy broth to yield turbidity equal to a 0.5 McFarland standard. The final inoculum for MIC testing for Staphylococcus aureus fluoroquinolone-susceptible, Staphylococcus aureus fluoroquinolone-resistant, Staphylococcus epidermidis (Coagulase-negative Staphylococcus) fluoroquinolone-susceptible, Staphylococcus epidermidis (Coagulase-negative Staphylococcus) fluoroquinolone-resistant, Serratia marcescens, and Pseudomonas aeruginosa was achieved by placing 0.05 ml of the turbidity adjusted sample to 5 ml of Mueller-Hinton broth.
(§4) Ninety μl of the bacterial suspensions was dispensed in each well from column 1 to column 12. Each bacterial isolate was placed in one row of a 96 well polypropylene plate containing the test agents. The plates were placed on shaker at 15 minutes at room temperature, and then incubated at 37° C. overnight. MICs were determined visually as the lowest concentration of drug that inhibits visible bacterial growth.

[2] = system: Streptococcus viridans group; test: as above; assay type: cell-based
Procedure: Mueller-Hinton Broth supplemented with 2% lysed horse blood in tubes was inoculated with 25 ocular isolates of Streptococcus pneumoniae, Streptococcus viridans group, and Moraxella species (including Moraxella catarrhalis) plus two controls (Staphylococcus aureus and E. coli) and incubated at 37° C. overnight. Additionally, Mueller-Hinton Broth in tubes was inoculated with two controls (Staphylococcus aureus and E. coli) and incubated at 37° C. overnight on a shaker set at 250 rpm.
as §1, §2, §3
On the day of testing, the overnight bacterial broth cultures of Streptococcus pneumoniae, Streptococcus viridans and Moraxella species (including Moraxella catarrhalis) plus two controls (Staphylococcus aureus and E. coli) were diluted in 5 ml of trypticase soy broth to yield turbidity equal to a 0.5 McFarland standard. The final inoculum for MIC testing for Streptococcus pneumoniae, Streptococcus viridans and Moraxella species (including Moraxella catarrhalis) was achieved by placing 0.1 ml of the turbidity adjusted sample to 5 ml of Mueller-Hinton broth containing 2% lysed horse red blood cells.
as §4

N=C(N)NCCCCC(=O)Nc1cc(C(F)(F)F)cc(NC(=O)c2cc(C(=O)Nc3cc(C(F)(F)F)cc(NC(=O)CCCCNC(=N)N)c3O[C@@H]3CCNC3)ncn2)c1O[C@@H]1CCNC1 [Oligomer 4]
MIC, sorted list for MIC50 and MIC90 Determinations (QSSA-A) ([1]; 25 isolates sorted ascending, Row 1-25, in µg/mL): 0.250 and 0.500 | MIC50 ([1]; 25 isolates, Row 13): 0.25 µg/mL (≈ 0.267 µM) | MIC90 ([1]; 25 isolates, Row 22): 0.5 µg/mL (≈ 0.534 µM) | Range of MICs ([1]; 25 isolates, Summary of Results): 0.125 to 0.5 µg/mL | MIC ([1]; Staphylococcus aureus, 25 ocular isolates, read-out: Median MIC): ≤ 0.25 µg/mL | MIC ([1]; Staphylococcus aureus, isolate 1—E402, read-out: MIC): 0.25 µg/mL (≈ 0.267 µM) | MIC ([1]; Staphylococcus aureus, isolate 2—E1512, read-out: MIC): 0.25 µg/mL (≈ 0.267 µM) | MIC ([1]; Staphylococcus aureus, isolate 3—E253, read-out: MIC): 0.25 µg/mL (≈ 0.267 µM) | MIC ([1]; Staphylococcus aureus, isolate 4—K1518, read-out: MIC): 0.25 µg/mL (≈ 0.267 µM) | MIC ([1]; Staphylococcus aureus, isolate 5—K1525, read-out: MIC): 0.125 µg/mL (≈ 0.133 µM) | MIC ([1]; Staphylococcus aureus, isolate 6—K1663, read-out: MIC): 0.5 µg/mL (≈ 0.534 µM) | MIC ([1]; Staphylococcus aureus, isolate 7—K1648, read-out: MIC): 0.25 µg/mL (≈ 0.267 µM) | MIC ([1]; Staphylococcus aureus, isolate 8—K1646, read-out: MIC): 0.25 µg/mL (≈ 0.267 µM) | MIC ([1]; Staphylococcus aureus, isolate 9—K1642, read-out: MIC): 0.5 µg/mL (≈ 0.534 µM) | MIC ([1]; Staphylococcus aureus, isolate 10—K1638, read-out: MIC): 0.5 µg/mL (≈ 0.534 µM) | MIC ([1]; Staphylococcus aureus, isolate 11—K1628, read-out: MIC): 0.25 µg/mL (≈ 0.267 µM) | MIC ([1]; Staphylococcus aureus, isolate 12—K1618, read-out: MIC): 0.5 µg/mL (≈ 0.534 µM) | MIC ([1]; Staphylococcus aureus, isolate 13—K1617, read-out: MIC): 0.25 µg/mL (≈ 0.267 µM) | MIC ([1]; Staphylococcus aureus, isolate 14—K1611, read-out: MIC): 0.25 µg/mL (≈ 0.267 µM) | MIC ([1]; Staphylococcus aureus, isolate 15—K1607, read-out: MIC): 0.25 µg/mL (≈ 0.267 µM) | MIC ([1]; Staphylococcus aureus, isolate 16—K1600, read-out: MIC): 0.25 µg/mL (≈ 0.267 µM) | MIC ([1]; Staphylococcus aureus, isolate 17—K1591, read-out: MIC): 0.25 µg/mL (≈ 0.267 µM) | MIC ([1]; Staphylococcus aureus, isolate 18—K1585, read-out: MIC): 0.25 µg/mL (≈ 0.267 µM) | MIC ([1]; Staphylococcus aureus, isolate 19—K1583, read-out: MIC): 0.25 µg/mL (≈ 0.267 µM) | MIC ([1]; Staphylococcus aureus, isolate 20—K1574, read-out: MIC): 0.25 µg/mL (≈ 0.267 µM) | MIC ([1]; Staphylococcus aureus, isolate 21—K1566, read-out: MIC): 0.25 µg/mL (≈ 0.267 µM) | MIC ([1]; Staphylococcus aureus, isolate 22—K1551, read-out: MIC): 0.25 µg/mL (≈ 0.267 µM) | MIC ([1]; Staphylococcus aureus, isolate 23—K1545, read-out: MIC): 0.25 µg/mL (≈ 0.267 µM) | MIC ([1]; Staphylococcus aureus, isolate 24—K1540, read-out: MIC): 0.25 µg/mL (≈ 0.267 µM) | MIC ([1]; Staphylococcus aureus, isolate 25—K1530, read-out: MIC): 0.25 µg/mL (≈ 0.267 µM) | MIC ([1]; Staphylococcus aureus, n=25 per group, read-out: Median MIC): 0.25 µg/mL (≈ 0.267 µM) | MIC50 ([1]; Staphylococcus aureus, 25 isolates, Summary of Results, read-out: MIC50): 0.25 µg/mL (≈ 0.267 µM) | MIC90 ([1]; Staphylococcus aureus, 25 isolates, Summary of Results, read-out: MIC90): 0.25 µg/mL (≈ 0.267 µM) | MIC ([1]; Staphylococcus aureus, 25 isolates, Summary of Results, read-out: Median MIC): 0.25 µg/mL (≈ 0.267 µM) | MIC50 ([1]; n=25 per group): 0.25 µg/mL (≈ 0.267 µM) | MIC90 ([1]; n=25 per group): 0.25 µg/mL (≈ 0.267 µM) | Range of MICs ([1]; n=25 per group): 0.125 to 0.5 µg/mL | MIC50 ([2]; 25 isolates, Row 13): 4 µg/mL (≈ 4.27 µM) | MIC90 ([2]; 25 isolates, Row 22, >64 was Replaced with 128): 8 µg/mL (≈ 8.54 µM) | Range of MICs ([2]; 25 isolates, Summary of Results, >64 was Replaced with 128): 1 to 32 µg/mL | MIC ([2]; Streptococcus viridans, 25 ocular isolates, Mueller-Hinton broth with 2% lysed horse red blood cells, read-out: Median MIC): 4 µg/mL (≈ 4.27 µM) | MIC ([2]; Streptococcus viridans, isolate 1—K1684, read-out: MIC): 2 µg/mL (≈ 2.13 µM) | MIC ([2]; Streptococcus viridans, isolate 2—K1680, read-out: MIC): 4 µg/mL (≈ 4.27 µM) | MIC ([2]; Streptococcus viridans, isolate 3—E546, read-out: MIC): 1 µg/mL (≈ 1.07 µM) | MIC ([2]; Streptococcus viridans, isolate 4—E272, read-out: MIC): 2 µg/mL (≈ 2.13 µM) | MIC ([2]; Streptococcus viridans, isolate 5—E506, read-out: MIC): 16 µg/mL (≈ 17.1 µM) | MIC ([2]; Streptococcus viridans, isolate 6—E496, read-out: MIC): 1 µg/mL (≈ 1.07 µM) | MIC ([2]; Streptococcus viridans, isolate 7—E456, read-out: MIC): 4 µg/mL (≈ 4.27 µM) | MIC ([2]; Streptococcus viridans, isolate 8—E432, read-out: MIC): 4 µg/mL (≈ 4.27 µM) | MIC ([2]; Streptococcus viridans, isolate 9—E423, read-out: MIC): 4 µg/mL (≈ 4.27 µM) | MIC ([2]; Streptococcus viridans, isolate 10—E418, read-out: MIC): 8 µg/mL (≈ 8.54 µM) | MIC ([2]; Streptococcus viridans, isolate 11—E412, read-out: MIC): 2 µg/mL (≈ 2.13 µM) | MIC ([2]; Streptococcus viridans, isolate 12—E409, read-out: MIC): 8 µg/mL (≈ 8.54 µM) | MIC ([2]; Streptococcus viridans, isolate 13—E405, read-out: MIC): 4 µg/mL (≈ 4.27 µM) | MIC ([2]; Streptococcus viridans, isolate 14—E404, read-out: MIC): 32 µg/mL (≈ 34.2 µM) | MIC ([2]; Streptococcus viridans, isolate 15—E396, read-out: MIC): 16 µg/mL (≈ 17.1 µM) | MIC ([2]; Streptococcus viridans, isolate 16—E262, read-out: MIC): 1 µg/mL (≈ 1.07 µM) | MIC ([2]; Streptococcus viridans, isolate 17—E362, read-out: MIC): 4 µg/mL (≈ 4.27 µM) | MIC ([2]; Streptococcus viridans, isolate 18—E359, read-out: MIC): 4 µg/mL (≈ 4.27 µM) | MIC ([2]; Streptococcus viridans, isolate 19—E348, read-out: MIC): 8 µg/mL (≈ 8.54 µM) | MIC ([2]; Streptococcus viridans, isolate 20—E344, read-out: MIC): 4 µg/mL (≈ 4.27 µM) | MIC ([2]; Streptococcus viridans, isolate 21—E308, read-out: MIC): 4 µg/mL (≈ 4.27 µM) | MIC ([2]; Streptococcus viridans, isolate 22—E294, read-out: MIC): 4 µg/mL (≈ 4.27 µM) | MIC ([2]; Streptococcus viridans, isolate 23—E292, read-out: MIC): 4 µg/mL (≈ 4.27 µM) | MIC ([2]; Streptococcus viridans, isolate 24—E285, read-out: MIC): 4 µg/mL (≈ 4.27 µM) | MIC ([2]; Streptococcus viridans, isolate 25—E265, read-out: MIC): 1 µg/mL (≈ 1.07 µM) | MIC ([2]; Streptococcus viridans, n=25 per group, read-out: Median MIC): 4 µg/mL (≈ 4.27 µM) | MIC90 ([2]; Streptococcus viridans, 25 isolates, Summary of Results, >64 was Replaced with 128, read-out: MIC90): 8 µg/mL (≈ 8.54 µM) | MIC50 ([2]; Streptococcus viridans, 25 isolates, Summary of Results, read-out: MIC50): 4 µg/mL (≈ 4.27 µM) | MIC ([2]; Streptococcus viridans, 25 isolates, Summary of Results, read-out: Median MIC): 4 µg/mL (≈ 4.27 µM) | MIC50 ([2]; n=25 per group): 4 µg/mL (≈ 4.27 µM) | MIC90 ([2]; n=25 per group): 8 µg/mL (≈ 8.54 µM) | Range of MICs ([2]; n=25 per group): 1 to 32 µg/mL
